Molecules are shown by their SMILES.

This data set can be described thus: Water solubility of bifunctional polymerizable monomer. Type of data set: physicochemical. As to conditions: mixed with ion exchanged water at 25° C.; concentration at which no insoluble matter is found by visual observation. The procedure:
When a bifunctional polymerizable monomer is mixed with ion exchanged water at 25° C. and the concentration at which no insoluble matter is found as a result of visual observation of the resulting mixture is shown as water solubility. Higher water solubility is preferred and the evaluation criteria is as follows.
A: no insoluble matter is found at 20% by mass
B: no insoluble matter is found at 5% by mass
C: no insoluble matter is found at 1% by mass
D: an insoluble matter is found at 1% by mass
As to `C=CC(=O)NCCOCCOCCNC(=O)C=C` [Comparative compound 2, reference compound], the Water solubility entry was “A (no insoluble matter is found at 20% by mass)”.

Consider `C=CC(=O)NCCCC(=O)NCCCNC(=O)CCCNC(=O)C=C` [Curable substance 4], for which the Water solubility entry is recorded as “B (no insoluble matter is found at 5% by mass)”.

`C=CC(=O)NCCCOCCOCCOCCCN(O)C(=O)C=C` [Comparative compound 1, reference compound]: the Water solubility result was “A (no insoluble matter is found at 20% by mass)”.

`C=CC(=O)NCCC(=O)NCCCNC(=O)CCNC(=O)C=C` [Curable substance 3]: the Water solubility entry is reported as “B (no insoluble matter is found at 5% by mass)”.

Consider `C=CC(=O)NCCCCCC(=O)NCCNC(=O)CCCCCNC(=O)C=C` [Curable substance 12], for which the Water solubility entry is “C (no insoluble matter is found at 1% by mass)”.

Turning to `C=CC(=O)NCCCCCC(=O)NCCOCCOCCNC(=O)CCCCCNC(=O)C=C` [Curable substance 2], the Water solubility result is “C (no insoluble matter is found at 1% by mass)”.

For `C=CC(=O)NCCC(=O)NCCOCCOCCNC(=O)CCNC(=O)C=C` [Curable substance 1], the Water solubility entry is recorded as “A (no insoluble matter is found at 20% by mass)”.

(Values after patent publication US12577417B2, “Active energy ray-curable aqueous ink, recording method and recording apparatus” (CANON KABUSHIKI KAISHA, priority 2021, dated 2026).)
